In publication PMC4503694, “The Human Autoantibody Response to Apolipoprotein A-I Is Focused on the C-Terminal Helix: A New Rationale for Diagnosis and Treatment of Cardiovascular Disease?” (PLoS ONE, 2015):

What was measured:
[1] = CD spectroscopy (alpha-helical content); assay type: physicochemical; conditions: 100 μM peptide in water with 1.25% trifluoroethanol, 20°C (Fig 2)
Experimental: Experiments were carried out in 0.1 cm quartz cell using a Jasco J-710 spectrometer with 100 μM peptide solutions (1.25% trifluoroethanol in water) at 20°C.
Fig 2 CD spectroscopy of peptide F3L1 indicates increased alpha-helical content. CD spectra of Peptide F and F3L1 were measured at 100μM concentration in water containing 1.25% trifluoroethanol.

[2] = system: RAW cells; experiment: Anti-ApoA-I IgG-induced TNF-α release in RAW mouse macrophage cell line; assay type: cell-based; conditions: anti-ApoA-I IgG 100 μg/ml preincubated 2 h with peptide 100 to 0.06 μg/ml; 24 h stimulation; ELISA; n = 3 (Fig 7)
Experimental: Raw cells were seeded in 96-well plates at 2 × 10^5 cells/well in DMEM culture medium (10% heat-inactivated FCS, 50 μg/ml streptomycin, 50 U/ml penicillin) for 24 h. Anti-Apo-A1 IgG (100 μg/ml) were incubated with peptides across a concentration range from 100 μg/ml to 0.06 μg/ml for 2 h at room temperature prior addition to cells. After 24 h stimulation, mouse TNF-α was quantified in the cell supernatants by ELISA according to manufacturer’s instructions (R&D system, MN).
Fig 7 Comparing the inhibitory potency of Peptide F and F3L1 on anti-ApoA-I IgG-induced TNF-α. Anti-ApoA-I IgG was incubated with the indicated peptide concentrations (preincubation 2 h at room temperature) prior to addition to cultured RAW cells. Levels of proinflammatory cytokines (TNF-α) were determined after 24 h culture. Mean levels (n = 3) are shown with error bars indicating the range.

[3] = system: anti-ApoA-I antibodies in plasma samples from three different patients; experiment: Competition ELISA with plasma of three individual anti-ApoA-I-positive patients; assay type: binding, human; conditions: preincubated 2 h at room temperature with peptide, n = 3 (Fig 3)
Experimental: We next performed ELISA assays using plasma samples from three different anti-ApoA-I autoantibody-positive patients from the cohort pre-incubated with Peptide F, a scrambled version of Peptide F (Table 1), or the stapled peptide F3L1 prior to addition to wells coated with ApoA-I (Fig 3).
Plasma samples were preincubated (2 h, room temperature) with peptides at the indicated concentrations prior to addition to assay wells. Percent maximal ELISA signals were calculated as 100 × ([signal in well]-[mean background signal (uncoated well)])/ ([mean maximal signal (no peptide)]-[mean background signal]). Results are expressed as mean ± SD (n = 3).

[4] = system: human monocyte-derived macrophages; experiment: Anti-ApoA-I IgG-mediated IL-6 and TNF-α release from human monocyte-derived macrophages; assay type: cell-based
Experimental: Human monocytes were isolated from buffy coats from healthy donors at the Geneva University Hospitals Blood Transfusion Center and differentiated into macrophages by 24 h incubation with IFN-γ (500 U/ml) in complete RPMI-1640 culture medium (10% heat-inactivated FCS, 50 μg/ml streptomycin, 50 U/ml penicillin, 2 mM L-glutamine), as previously described. Assays of anti-ApoA-I IgG-mediated release of IL-6 and TNF-α from human monocyte-derived macrophages was carried out as described previously using a previously determined optimal concentration of polyclonal goat anti-ApoA-I IgG (40 μg/ml). Endotoxin contamination in the assay was excluded using the limulus amebocyte lysate Endochrome assay. Where indicated, anti-ApoA-I IgG was pre-incubated with peptide […] (1 mg/mL) for 2 h at room temperature prior addition to the cells. Each experiment was performed on cells from […] different healthy blood donors. […] We next used a Luminex assay to measure the capacity of peptide […] to inhibit endotoxin-free anti-ApoA-I IgG-mediated proinflammatory cytokine release in human monocyte-derived macrophages (Fig 5a and 5b). As expected from previously published work, anti-ApoA-I IgG elicited a significant increase in production of both in IL-6 and TNF-α when compared to control IgG (Ctl IgG; p<0.0001 for both cytokines). […] We were unable to measure the inhibitory activity of intact purified and delipidated ApoA-I in this assay because traces of endotoxin elicit significant levels of background cytokine secretion (NV and SP, unpublished observations).  Fig 5 Peptide […] inhibits anti-ApoA-I IgG-mediated release of proinflammatory cytokines from cultured human monocyte-derived macrophages. Release of proinflammatory cytokines TNF-α (a) IL-6 (b) from human monocyte-derived macrophages induced by endotoxin-free goat polyclonal anti-ApoA-I IgG was determined with or without preincubation (2 h at room temperature) of the anti-ApoA-I IgG with peptide […] (1 mg/mL) and the corresponding scrambled peptide (Scr Pept). […] Anti-ApoA-I IgG was incubated with the indicated […] concentrations (preincubation 2 h at room temperature) prior to addition to cultured human monocyte-derived macrophages. Levels of proinflammatory cytokines were determined after 24 h culture. Experiments were repeated using cells from three different healthy donors, with results expressed as median, interquartile range (IQR) and range.

[5] = anti-ApoA-I IgG 40 μg/ml preincubated 2 h at room temperature with peptide 1 mg/mL (342 μM), nine donors, Luminex

Ac-GLLPVLESFKVSFLSALEEYTKKLNT-NH2 (also: sidechain bridge or staple (positions not given here)) [Peptide F3L1, stapled version of Peptide F with a Glu-Lys lactam bridge]
alpha-helical content by CD [1]: increased alpha-helical content compared to the parent molecule | inhibitory potency on anti-ApoA-I IgG-induced TNF-α [2]: clearly a more potent inhibitor than Peptide F | inhibition of binding of anti-ApoA-I IgG to immobilized ApoA-I [3]: consistently improved binding inhibition with respect to Peptide F | median IL-6 production [4, 5]: 19.2 pg/mL | median TNF-α production [4, 5]: 48.4 pg/mL | inhibition of anti-ApoA-I IgG-induced TNF-α and IL-6 release ([4]; peptide preincubated with anti-ApoA-I IgG 2 h at room temperature, highest concentration 1 mg/mL (Fig 5, 6)): dose-dependent manner | cytokine production by peptide compared to control IgG ([4]; peptide without anti-ApoA-I IgG, trend for TNF-α, p = 0.05): devoid of significant biological activity
